WSSV copy number and Inhibition zone data for nine compounds are collected here from paper PMC4446596, “Functional Diversity of Anti-Lipopolysaccharide Factor Isoforms in Shrimp and Their Characters Related to Antiviral Activity” (Marine Drugs, 2015).

Where a SMILES comes first, the peptide text is derived from it.

For one experiment, the system named is WSSV. Kind of experiment: Antiviral activity detection: WSSV pre-incubated with peptide injected into E. carinicauda, in vivo WSSV copy number. Details: species or system Exopalaemon carinicauda. As to conditions: E. carinicauda pleopods, 24 h post injection; WSSV (10^3 copies/μL) pre-incubated 2 h at room temperature with 50 μM peptide, 10 μL injected; VP28 real-time PCR; n = 15; WSSV group 1.21 × 10^5, blank 1.31 × 10^3. How it is done:
Exopalaemon carinicauda is being regarded as a good crustacean model animal for WSSV infection experiments. In this study, healthy E. carinicauda with a body length of 5.43 ± 0.30 cm and a body weight of 2.62 ± 0.42 g were used as experimental animals for WSSV infection assay. Animals were acclimatized in the aerated seawater at 25 °C for 1 day before experiments.
In order to learn the effect of synthetic LBD peptides on WSSV infection, WSSV pre-incubated with different peptides was injected into E. carinicauda and the WSSV copy number in the pleopods of E. carinicauda was detected. E. carinicauda was classified into 13 groups and each group contained 18 to 20 individuals. The 13 groups were named as Blank, WSSV, pGFP, LBD1, LBD2, LBD3, LBD4, LBD5, LBD6, LBD7, sLBD2, LBD2-K and LBD4+K, respectively. Synthetic peptides were diluted into 50 μM with PBS (pH 7.4). WSSV was incubated with each peptide solution for 2 h at room temperature with a final concentration 10^3 copies/μL. […] For WSSV group, each shrimp was injected with 10 μL WSSV incubated with PBS (pH 7.4) for 2 h at room temperature. For the other groups (LBD1–LBD7, sLBD2, LBD2-K and LBD4+K), each shrimp was injected with 10 μL of WSSV solution after incubation with corresponding synthetic peptides, respectively. At 24 h post injection (hpi), the pleopods of 15 shrimps in each group were collected and the pleopods from three individuals were put together as one sample. Total DNA of each sample was extracted using the Genomic DNA Kit (Tiangen, China). The viral copy number was measured by detecting the level of VP28 using real-time PCR as described previously.
Background: Quantitative PCR measures a nucleic acid by following its amplification.

Another experiment deals with E. coli. Kind of experiment: Inhibition zone test. Format: cell-based, Escherichia coli. The settings on record: 20 μL of 64 μM peptide in PBS pH 7.4 on 6 mm filter paper, solid LB plate, 37 °C, 24 h. How it is done:
(§1) Gram-negative bacteria, including Escherichia coli and Aeromonas hydrophila, and Gram-positive bacteria, including Micrococcus luteus and Bacillus simplex were used for antibacterial analyses. The strains were incubated in fresh LB medium overnight at 37 °C for E. coli, M. luteus and 28 °C for A. hydrophila, B. simplex.
(§2) The antibacterial activities of LBD peptides were examined by inhibition zone test. The overnight cultures of bacteria were diluted 100 times and cultured in LB medium at 37 °C (E. coli and M. luteus) or 28 °C (A. hydrophila and B. simplex) for 6 h. These cultures were then diluted 100 times with LB medium separately, and 200 μL solutions from each diluted cultures was taken out and spread on the solid LB medium plate uniformly. Sterile filter paper with a diameter of 6 mm was put on the surface of solid LB medium gently. Twenty microliters of 64 μM peptide solution dissolved in PBS (pH 7.4) was added to the center of filter paper with a diameter of 6 mm. Twenty microliters PBS and 20 μL of 64 μM pGFP peptide were used as negative controls. […] ampicillin solutions was used as the positive control for E. coli, M. luteus and B. simplex culture, and 50 μM kanamycin sulfates was used as the positive control for A. hydrophila culture. The plates were cultured at 37 °C (E. coli and M. luteus) or 28 °C (A. hydrophila and B. simplex) for 24 h.

In another experiment the test system is M. luteus. Description: Inhibition zone test. Format: cell-based, Micrococcus luteus. As to conditions: 20 μL of 64 μM peptide in PBS pH 7.4 on 6 mm filter paper, solid LB plate, 37 °C, 24 h. How it is done: as §1, §2
Another experiment has as its system A. hydrophila. Description: Inhibition zone test. The settings on record: 20 μL of 64 μM peptide in PBS pH 7.4 on 6 mm filter paper, solid LB plate, 28 °C, 24 h. Format: cell-based, Aeromonas hydrophila. How it is done: as §1, §2

As for “Ac-S(CRYSQRPSFKRWELYFNGRMWC)P-NH2 (disulfide) [LBD4+K, same as LBD4 except for the replacement of a tyrosine residue by a lysine residue]”, the WSSV copy number in the experiment on WSSV was 3.40 × 10^3 copies/ng DNA.
For `CC[C@H](C)[C@@H]1NC(=O)[C@H](Cc2ccccc2)NC(=O)[C@H](Cc2ccc(O)cc2)NC(=O)[C@H](CC(C)C)NC(=O)[C@H](CCC(=O)O)NC(=O)[C@H](Cc2ccccc2)NC(=O)CNC(=O)[C@H](CCC(N)=O)NC(=O)[C@H]([C@@H](C)CC)NC(=O)[C@H](CC(=O)O)NC(=O)[C@@H]2CCCN2C(=O)[C@H](CCCCN)NC(=O)[C@H](C(C)C)NC(=O)[C@H](CO)NC(=O)[C@H](Cc2ccc(O)cc2)NC(=O)[C@H](CO)NC(=O)[C@@H](NC(=O)[C@H](CO)NC(C)=O)CSSC[C@@H](C(=O)N2CCC[C@H]2C(N)=O)NC(=O)[C@H]([C@@H](C)O)NC(=O)[C@H](C(C)C)NC(=O)[C@H](CO)NC(=O)CNC1=O` [LBD6] (HELM PEPTIDE1{[ac].S.C.S.Y.S.V.K.P.D.I.Q.G.F.E.L.Y.F.I.G.S.V.T.C.P.[am]}$PEPTIDE1,PEPTIDE1,3:R3-24:R3$$$V2.0), the Inhibition zone entry in the experiment on E. coli was “apparent inhibition zones”. The WSSV copy number in the experiment on WSSV is recorded as 1.55 × 10^5 copies/ng DNA.
With `CC(=O)N[C@@H](Cc1ccc(O)cc1)C(=O)N[C@H]1CSSC[C@@H](C(=O)N2CCC[C@H]2C(N)=O)NC(=O)[C@H](CCCCN)NC(=O)[C@H](CC(C)C)NC(=O)[C@H](CCC(=O)O)NC(=O)[C@H](C)NC(=O)[C@H](CCCNC(=N)N)NC(=O)[C@H](Cc2ccc(O)cc2)NC(=O)[C@H](Cc2c[nH]cn2)NC(=O)[C@H](C(C)C)NC(=O)[C@H](CCC(=O)O)NC(=O)[C@H](CC(C)C)NC(=O)[C@H](CCCCN)NC(=O)[C@H](CCCCN)NC(=O)[C@H](CC(C)C)NC(=O)[C@H](Cc2ccc(O)cc2)NC(=O)[C@@H]2CCCN2C(=O)[C@H](CO)NC(=O)[C@H](CCCNC(=N)N)NC(=O)[C@H](CO)NC(=O)[C@H](CC(C)C)NC(=O)[C@H](CC(C)C)NC1=O` [LBD5] (HELM PEPTIDE1{[ac].Y.C.L.L.S.R.S.P.Y.L.K.K.L.E.V.H.Y.R.A.E.L.K.C.P.[am]}$PEPTIDE1,PEPTIDE1,3:R3-24:R3$$$V2.0), in the experiment with WSSV, the WSSV copy number is given as 2.07 × 10^3 copies/ng DNA.
In the case of `CSCC[C@@H]1NC(=O)[C@H](CCCNC(=N)N)NC(=O)CNC(=O)[C@H](CC(N)=O)NC(=O)[C@H](Cc2ccccc2)NC(=O)[C@H](Cc2ccc(O)cc2)NC(=O)[C@H](CC(C)C)NC(=O)[C@H](CCC(=O)O)NC(=O)[C@H](Cc2c[nH]c3ccccc23)NC(=O)[C@H](CCCNC(=N)N)NC(=O)[C@H](Cc2ccc(O)cc2)NC(=O)[C@H](Cc2ccccc2)NC(=O)[C@H](CO)NC(=O)[C@@H]2CCCN2C(=O)[C@H](CCCNC(=N)N)NC(=O)[C@H](CCC(N)=O)NC(=O)[C@H](CO)NC(=O)[C@H](Cc2ccc(O)cc2)NC(=O)[C@H](CCCNC(=N)N)NC(=O)[C@@H](NC(=O)[C@H](CO)NC(C)=O)CSSC[C@@H](C(=O)N2CCC[C@H]2C(N)=O)NC(=O)[C@H](Cc2c[nH]c3ccccc23)NC1=O` [LBD4] (HELM PEPTIDE1{[ac].S.C.R.Y.S.Q.R.P.S.F.Y.R.W.E.L.Y.F.N.G.R.M.W.C.P.[am]}$PEPTIDE1,PEPTIDE1,3:R3-24:R3$$$V2.0), the Inhibition zone result with E. coli is “apparent inhibition zones”. Also, in the experiment with WSSV, the WSSV copy number is reported as 7.24 × 10^4 copies/ng DNA.
Consider “Ac-Y(CSFNVTPKFQRWQLYFRGRMWC)P-NH2 (disulfide) [LBD2-K, same as LBD2 except for the replacement of a lysine residue by a glutamine residue]”, for which the WSSV copy number in the experiment on WSSV is on record as 5.14 × 10^4 copies/ng DNA.
On the same count and under the same terms, the result for “Ac-FKRWQLYFRG-NH2 [sLBD2, a part (ten amino acid residues) of LBD]” reads 4.04 × 10^3 copies/ng DNA.
`CSCC[C@@H]1NC(=O)[C@H](CCCNC(=N)N)NC(=O)CNC(=O)[C@H](CCCCN)NC(=O)[C@H](Cc2ccccc2)NC(=O)[C@H](Cc2ccc(O)cc2)NC(=O)[C@H](CC(C)C)NC(=O)[C@H](CCC(=O)O)NC(=O)[C@H](Cc2ccccc2)NC(=O)[C@H](CO)NC(=O)[C@H](CCCCN)NC(=O)[C@H](C(C)C)NC(=O)[C@H]([C@@H](C)O)NC(=O)[C@@H]2CCCN2C(=O)[C@H]([C@@H](C)O)NC(=O)[C@H](C(C)C)NC(=O)[C@H](CO)NC(=O)[C@H](Cc2ccc(O)cc2)NC(=O)[C@H]([C@@H](C)O)NC(=O)[C@@H](NC(=O)[C@H](CCC(N)=O)NC(C)=O)CSSC[C@@H](C(=O)N2CCC[C@H]2C(N)=O)NC(=O)[C@H](CO)NC1=O` [LBD1] (HELM PEPTIDE1{[ac].Q.C.T.Y.S.V.T.P.T.V.K.S.F.E.L.Y.F.K.G.R.M.S.C.P.[am]}$PEPTIDE1,PEPTIDE1,3:R3-24:R3$$$V2.0): the Inhibition zone entry in the experiment with M. luteus was “Obvious inhibition zones”; in the experiment on E. coli it was “apparent inhibition zones”. In addition, the WSSV copy number in the experiment with WSSV is on record as 4.36 × 10^3 copies/ng DNA.
Regarding `CC[C@H](C)[C@@H]1NC(=O)[C@H](Cc2ccccc2)NC(=O)[C@H](Cc2ccc(O)cc2)NC(=O)[C@H](CC(C)C)NC(=O)[C@H](CCC(N)=O)NC(=O)[C@H](Cc2c[nH]c3ccccc23)NC(=O)[C@H](CCCNC(=N)N)NC(=O)[C@H](CCC(N)=O)NC(=O)[C@H](Cc2ccccc2)NC(=O)[C@H]([C@@H](C)O)NC(=O)[C@@H]2CCCN2C(=O)[C@H](CCCCN)NC(=O)[C@H](C(C)C)NC(=O)[C@H](CO)NC(=O)[C@H](Cc2ccc(O)cc2)NC(=O)[C@H](C(C)C)NC(=O)[C@@H](NC(=O)[C@H](Cc2ccc(O)cc2)NC(C)=O)CSSC[C@@H](C(=O)N2CCC[C@H]2C(N)=O)NC(=O)[C@H](Cc2c[nH]c3ccccc23)NC(=O)[C@H](CCSC)NC(=O)[C@H](CO)NC(=O)CNC1=O` [LBD3] (HELM PEPTIDE1{[ac].Y.C.V.Y.S.V.K.P.T.F.Q.R.W.Q.L.Y.F.I.G.S.M.W.C.P.[am]}$PEPTIDE1,PEPTIDE1,3:R3-24:R3$$$V2.0), the Inhibition zone entry in the experiment on M. luteus is listed as “Obvious inhibition zones”. The WSSV copy number in the experiment on WSSV is 1.19 × 10^5 copies/ng DNA.
Regarding `CC[C@H](C)[C@@H]1NC(=O)[C@H](Cc2ccc(O)cc2)NC(=O)[C@@H]2CCCN2C(=O)[C@H](CCCCN)NC(=O)[C@H](C(C)C)NC(=O)[C@H]([C@@H](C)O)NC(=O)[C@H](Cc2ccccc2)NC(=O)[C@H](CCCCN)NC(=O)[C@@H](NC(=O)[C@H](CCC(=O)O)NC(C)=O)CSSC[C@@H](C(=O)N2CCC[C@H]2C(N)=O)NC(=O)[C@H](Cc2c[nH]c3ccccc23)NC(=O)[C@H](CCSC)NC(=O)[C@H](CCCNC(=N)N)NC(=O)CNC(=O)[C@H](CCCCN)NC(=O)[C@H](Cc2ccc(O)cc2)NC(=O)[C@H](Cc2ccc(O)cc2)NC(=O)[C@H](CC(C)C)NC(=O)[C@H](CCC(N)=O)NC(=O)[C@H](Cc2ccccc2)NC(=O)[C@H](CCCNC(=N)N)NC(=O)[C@H](CCCCN)NC1=O` [LBD7] (HELM PEPTIDE1{[ac].E.C.K.F.T.V.K.P.Y.I.K.R.F.Q.L.Y.Y.K.G.R.M.W.C.P.[am]}$PEPTIDE1,PEPTIDE1,3:R3-24:R3$$$V2.0), the Inhibition zone entry in the experiment on E. coli is recorded as “apparent inhibition zones”; with A. hydrophila, “exhibited inhibition zones”. Besides, the WSSV copy number with WSSV is given as 5.07 × 10^3 copies/ng DNA.
